Test systems include COLO 205 colon; HL-60(TB) leukemia; HOP-92 NSCLC; HS 578T breast; OVCAR-5 ovarian; SK-OV-3 ovarian; SN12C renal; SNB-19 CNS; T-47D breast; EKVX NSCLC.
Holding throughout (assay): NCI tumour cell line growth inhibition, 48 h

Where “and” joins values, the source holds several entries; their conditions need not be identical. Identical values can stand only once.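 Where inhibition never reached the appropriate level, the endpoint shown equals the highest concentration tested. Otherwise, values were interpolated linearly from a five-concentration, 48-hour dose response in 96-well plates. GI50: concentration for 50% inhibition of growth. At the TGI there is no net growth.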

For the molecule `CCCCCCc1cc2cc(-c3csc(/C=C/c4ccccc4)n3)c(=O)oc2cc1O`, the GI50 was greater than 100 µM in the experiment with COLO 205 colon; 4.79 µM with HL-60(TB) leukemia; 4320 nM in the experiment with HOP-92 NSCLC; 9000 nM with HS 578T breast; 40.8 µM in the experiment on OVCAR-5 ovarian; 28.1 µM with SK-OV-3 ovarian. For the same molecule, the GI50 was 2120 nM with SN12C renal, 10.3 µM with SNB-19 CNS and 13.9 µM in the experiment with T-47D breast. Also, the TGI was greater than 100 µM with COLO 205 colon; 30.4 µM in the experiment on HL-60(TB) leukemia; 17.7 µM in the experiment on HOP-92 NSCLC; 42.7 µM in the experiment with HS 578T breast; greater than 100 µM in the experiment on OVCAR-5 ovarian; 80.3 µM with SK-OV-3 ovarian. The results for the TGI with SN12C renal, in the experiment with SNB-19 CNS and in the experiment on T-47D breast were 4.43 µM, 34.3 µM and greater than 100 µM, respectively.

With `FC(F)(F)c1ccc(-c2ncc(-c3ccc(C(F)(F)F)cc3)c(NCc3cc(C(F)(F)F)cc(C(F)(F)F)c3)n2)cc1`, the GI50 with COLO 205 colon is 2.34 µM; in the experiment on HL-60(TB) leukemia, 4.79 µM; with HOP-92 NSCLC, 1700 nM; in the experiment with HS 578T breast it was 2830 nM; with OVCAR-5 ovarian, 6.02 µM; in the experiment on SK-OV-3 ovarian it was 7.03 µM. The GI50 is 3650 nM in the experiment with SN12C renal, 3.49 µM with SNB-19 CNS and 3.12 µM in the experiment with T-47D breast. Also, the TGI in the experiment on COLO 205 colon was 6.09 µM; in the experiment on HL-60(TB) leukemia, 36.2 µM; with HOP-92 NSCLC, 5.05 µM; in the experiment on HS 578T breast, 27.4 µM; in the experiment on OVCAR-5 ovarian it was greater than 100 µM; with SK-OV-3 ovarian, 55.2 µM. Also, the TGI is greater than 100 µM in the experiment with SN12C renal, greater than 100 µM with SNB-19 CNS and 29 µM with T-47D breast.

As to `c1ccc(-c2cn(-c3ccccc3)c(-c3ccccc3)n2)cc1`, the GI50 in the experiment on COLO 205 colon was 10.9 µM; with EKVX NSCLC it was 15.1 µM; with HL-60(TB) leukemia it was 3.07 µM; with HOP-92 NSCLC it was 20100 nM; in the experiment with OVCAR-5 ovarian it was 19.8 µM; in the experiment on SK-OV-3 ovarian, 19.3 µM. In addition, the values for the GI50 with SN12C renal, with SNB-19 CNS and with T-47D breast were 15400 nM, 11.5 µM and 9.3 µM, respectively. Further, the TGI is 23.4 µM with COLO 205 colon; 28.9 µM in the experiment on EKVX NSCLC; 17.9 µM with HL-60(TB) leukemia; 50.4 µM in the experiment on HOP-92 NSCLC; 39.7 µM in the experiment with OVCAR-5 ovarian; 34 µM in the experiment on SK-OV-3 ovarian. The TGI in the experiment on SN12C renal turned out to be 30.6 µM; in the experiment on SNB-19 CNS it was 23.9 µM; with T-47D breast, 26.2 µM.

For `CCC(C)CC(C)C(=O)c1c(O)ccn(O)c1=O` (stereo unspecified), the GI50 with COLO 205 colon was 38.3 µM; in the experiment on HL-60(TB) leukemia, 0.473 µM; in the experiment on HOP-92 NSCLC, 686 nM; in the experiment on HS 578T breast, 3080 nM; in the experiment with OVCAR-5 ovarian, 23.7 µM; in the experiment with SK-OV-3 ovarian it was 6.2 µM. The GI50 in the experiment on SN12C renal was 1380 nM; in the experiment with SNB-19 CNS, 1.19 µM; in the experiment with T-47D breast, 4.12 µM. The TGI in the experiment with COLO 205 colon was greater than 100 µM; in the experiment with HL-60(TB) leukemia, 12.6 µM; in the experiment with HOP-92 NSCLC, 33.7 µM; with HS 578T breast, greater than 100 µM; with OVCAR-5 ovarian, greater than 100 µM; with SK-OV-3 ovarian it was greater than 100 µM. Further, the results for the TGI in the experiment on SN12C renal, in the experiment with SNB-19 CNS and with T-47D breast were 16.2 µM, greater than 100 µM and 76.9 µM, respectively.

For the molecule `CCC(C)(C)[C@H](NC(=O)[C@H]1CCCCN1C)C(=O)N(C)[C@H](C[C@@H](OC(C)=O)c1nc(C(=O)N[C@@H](Cc2ccccc2)C[C@H](C)C(=O)O)cs1)C(C)C`, the GI50 in the experiment on COLO 205 colon is less than 0.00167 µM; with EKVX NSCLC it was less than 0.00167 µM; with HL-60(TB) leukemia, less than 0.00167 µM; with HOP-92 NSCLC, 6.61 nM; in the experiment with HS 578T breast, less than 1.67 nM; in the experiment with OVCAR-5 ovarian, less than 0.00167 µM. For the same molecule, the GI50 with SK-OV-3 ovarian was less than 0.00167 µM; with SN12C renal it was less than 1.67 nM; in the experiment with SNB-19 CNS, less than 0.00167 µM. Moreover, the TGI in the experiment with COLO 205 colon is 0.00277 µM; in the experiment on EKVX NSCLC, greater than 16.7 µM; in the experiment on HL-60(TB) leukemia, less than 0.00167 µM; in the experiment on HOP-92 NSCLC, greater than 16.7 µM; in the experiment with HS 578T breast, greater than 11.5 µM; in the experiment on OVCAR-5 ovarian, greater than 16.7 µM. In addition, the TGI in the experiment with SK-OV-3 ovarian, with SN12C renal and in the experiment on SNB-19 CNS was greater than 16.7 µM each time.

With `N#Cc1c2ccccc2c2nnc3ccccc3n12`, the GI50 is 9.32 µM with COLO 205 colon; 12.6 µM in the experiment on EKVX NSCLC; greater than 100 µM in the experiment on HL-60(TB) leukemia; greater than 100000 nM in the experiment with HOP-92 NSCLC; greater than 100 µM with SK-OV-3 ovarian; 41.1 µM with SNB-19 CNS. The GI50 in the experiment on T-47D breast is greater than 100 µM. The TGI in the experiment with COLO 205 colon is greater than 100 µM; in the experiment with EKVX NSCLC, 72.1 µM; with HL-60(TB) leukemia it was greater than 100 µM; in the experiment on HOP-92 NSCLC, greater than 100 µM; with SK-OV-3 ovarian, greater than 100 µM; in the experiment with SNB-19 CNS, greater than 100 µM. In the experiment on T-47D breast, this molecule registered a TGI greater than 100 µM.

`O=C(/C=C/c1nnc2n(Cc3ccccc3)c(=O)c3c4c(sc3n12)CCCC4)c1ccccc1`: the GI50 was greater than 100 µM in the experiment with EKVX NSCLC; 0.407 µM and 0.332 µM in the experiment on HL-60(TB) leukemia; 1550 nM in the experiment with HOP-92 NSCLC; 3760 nM and 502 nM in the experiment with HS 578T breast; greater than 100 µM with OVCAR-5 ovarian; greater than 100 µM in the experiment with SK-OV-3 ovarian. The GI50 in the experiment on SNB-19 CNS is greater than 100 µM. The TGI in the experiment with EKVX NSCLC, with HL-60(TB) leukemia, with HOP-92 NSCLC, with HS 578T breast, in the experiment on OVCAR-5 ovarian and in the experiment on SK-OV-3 ovarian was greater than 100 µM each time. Moreover, the TGI in the experiment on SNB-19 CNS was greater than 100 µM.

As to `O=C1/C(=C\c2ccccc2)CN(C(=O)c2ccccc2)C/C1=C\c1ccccc1`, the GI50 with COLO 205 colon is 2.72 µM; in the experiment with HL-60(TB) leukemia it was 4.29 µM; in the experiment on HOP-92 NSCLC, 3280 nM; in the experiment with HS 578T breast it was 2310 nM; in the experiment on OVCAR-5 ovarian, 2.24 µM; in the experiment with SK-OV-3 ovarian, 3.1 µM. In addition, the results for the GI50 in the experiment on SN12C renal, with SNB-19 CNS and in the experiment on T-47D breast were 1900 nM, 3.79 µM and 4.93 µM, respectively. For the same molecule, the TGI in the experiment with COLO 205 colon stood at 7.01 µM; in the experiment on HL-60(TB) leukemia it was 52.7 µM; with HOP-92 NSCLC it was 21 µM; with HS 578T breast it was 7.21 µM; with OVCAR-5 ovarian, 6.83 µM; in the experiment on SK-OV-3 ovarian it was 9.44 µM. Besides, the TGI in the experiment with SN12C renal amounted to 4.31 µM; in the experiment with SNB-19 CNS, 15.1 µM; with T-47D breast it was 19.9 µM.

For the origin of these results see PubChem BioAssay (NCI).
